| SMILES | melting point |
| --- | --- |
| CC1CC(=O)c2c(C(=O)Nc3ccc4c(c3)OCCO4)c[nH]c2C1 (stereo not drawn) [Compound 42, N-(2,3-Dihydro-1,4-benzodioxin-6-yl)-4-oxo-6-methyl-4,5,6,7-tetrahydro-1H-indole-3-carboxamide] | 290 to 292 °C |
| Cl.O=C(Nc1cnccc1OCc1ccncc1)c1c[nH]c2c1C(=O)CCCC2 | 235 to 240 °C (dec.) |
| Cl.O=C(Nc1cnccc1OCCN1CCCCC1)c1c[nH]c2c1C(=O)CCC2 | 208 to 211 °C |
| CCCCNCCOc1ccc(NC(=O)c2c[nH]c3c2C(=O)CCC3)cc1.Cl | 187 to 190 °C |
| CCNCCOc1ccncc1NC(=O)c1c[nH]c2c1C(=O)CCC2.Cl | 178 to 180 °C |
| CN(C)CCOc1ccc(NC(=O)c2c[nH]c3c2C(=O)CCC3)cc1 [Compound 88, N-[4-(2-Dimethylaminoethoxy)phenyl]-4-oxo-4,5,6,7-tetrahydro-1H-indole-3-carboxamide] | 201 °C |
| Cl.O=C(Nc1cnccc1OCCN1CCCC1)c1c[nH]c2c1C(=O)CCC2 | 188 to 245 °C (dec.) |
| CC(C)(C)NCCOc1ccc(NC(=O)c2c[nH]c3c2C(=O)CCC3)cc1 [Compound 81, N-[4-(2-t-Butylaminoethoxy)phenyl]-4-oxo-4,5,6,7-tetrahydro-1H-indole-3-carboxamide] | 290 to 292 °C |
| CC(C)CNCCOc1ccc(NC(=O)c2c[nH]c3c2C(=O)CCC3)c(F)c1 [Compound 76, N-[2-Fluoro-4-(2-Isobutylaminoethoxy)phenyl]-4-oxo-4,5,6,7-tetrahydro-1H-indole-3-carboxamide] | 152 to 155 °C |
| CC1(C)CCc2[nH]cc(C(=O)Nc3ccc4c(c3)OCOC4)c2C1=O [Compound 38, N-(4H-1,3-Benzodioxin-7-yl)-4-oxo-5,5-dimethyl-4,5,6,7-tetrahydro-1H-indole-3-carboxamide] | 251 to 252 °C |
| CC(C)NCCOc1ccncc1NC(=O)c1c[nH]c2c1C(=O)CCC2.Cl | 167 to 169 °C |
| CN(C)CCOc1ccc(NC(=O)c2c[nH]c3c2C(=O)CCC3)cc1F [Compound 89, N-[3-Fluoro-4-(2-dimethylaminoethoxy)phenyl]-4-oxo-4,5,6,7-tetrahydro-1H-indole-3-carboxamide] | 203 °C |
| CNCc1ccc(NC(=O)c2c[nH]c3c2C(=O)CC(C)(C)C3)cc1 [Compound 32, N-[4-(Methylaminomethyl)phenyl]-4-oxo-6,6-dimethyl-4,5,6,7-tetrahydro-1H-indole-3-carboxamide] | 230 to 232 °C |
| Cl.O=C(Nc1cnccc1OCc1cccnc1)c1c[nH]c2c1C(=O)CCC2 | 276 to 277 °C |
| CCCNCCOc1ccc(NC(=O)c2c[nH]c3c2C(=O)CCC3)cc1 [Compound 64, N-[4-(2-n-Propylaminoethoxy)phenyl]-4-oxo-4,5,6,7-tetrahydro-1H-indole-3-carboxamide] | 130 to 133 °C |
| CC1CC(=O)c2c(C(=O)Nc3ccc4c(c3)OC(C)(C)O4)c[nH]c2C1 (stereo not drawn) [Compound 40, N-(2,2-Dimethyl-1,3-benzodioxol-5-yl)-4-oxo-6-methyl-4,5,6,7-tetrahydro-1H-indole-3-carboxamide] | 155 to 157 °C |
| Cl.O=C(Nc1cnccc1OCCNCc1ccccc1)c1c[nH]c2c1C(=O)CCC2 | 143 to 145 °C |
| O=C(Nc1ccc(OCCO)cc1)c1c[nH]c2c1C(=O)CCC2 [Compound 16, N-[4-(Hydroxyethoxy)phenyl]-4-oxo-4,5,6,7-tetrahydro-1H-indole-3-carboxamide] | 245 to 247 °C |
| CCNCCOc1ccc(NC(=O)c2c[nH]c3c2C(=O)CCCC3)cc1.Cl | 227 to 228 °C |
| Cl.O=C(Nc1cnccc1OCc1ccncc1)c1c[nH]c2c1C(=O)CCC2 | 293 °C |
| CC1(C)CC(=O)c2c(C(=O)Nc3ccc4c(c3)OCOC4)c[nH]c2C1 [Compound 45, N-(4H-1,3-Benzodioxin-7-yl)-4-oxo-6,6-dimethyl-4,5,6,7-tetrahydro-1H-indole-3-carboxamide] | 234 to 236 °C |
| O=C(Nc1ccc(OCCNCC2CC2)cc1F)c1c[nH]c2c1C(=O)CCC2 [Compound 72, N-[2-Fluoro-4-(2-Cyclopropylmethylaminoethoxy)phenyl]-4-oxo-4,5,6,7-tetrahydro-1H-indole-3-carboxamide] | 247 to 250 °C |
| CCOC(=O)COc1ccc(NC(=O)c2c[nH]c3c2C(=O)CCC3)cc1F [Compound 222, N-[3-Fluoro-4-(2-ethoxy-2-oxoethoxy)phenyl]-4-oxo-4,5,6,7-tetrahydro-1H-indole-3-carboxamide] | 192 to 196 °C |
| CCCNCCOc1ccncc1NC(=O)c1c[nH]c2c1C(=O)CCC2.Cl | 177 to 178 °C |

| SMILES | melting point |
| --- | --- |
| CCN(CC)CCN(C)C(=O)COc1ccc(NC(=O)c2c[nH]c3c2C(=O)CCC3)cc1 | 220 to 228 °C |
| O=C(Nc1cnccc1OCCN1CCCC1)c1c[nH]c2c1C(=O)CCC2 [Compound 124, N-[4-(2-Pyrrolidin-1-ylethoxy)pyrid-3-yl]-4-oxo-4,5,6,7-tetrahydro-1H-indole-3-carboxamide] | 148 to 150 °C |
| CN(C)CCOc1ccncc1NC(=O)c1c[nH]c2c1C(=O)CCC2 [Compound 122, N-[4-(2-Dimethylaminoethoxy)pyrid-3-yl]-4-oxo-4,5,6,7-tetrahydro-1H-indole-3-carboxamide] | 163 to 166 °C |
| Cl.O=C(Nc1cnccc1OCCN1CCCC1)c1c[nH]c2c1C(=O)CCCC2 | 160 to 162 °C |
| O=C(Nc1ccc2c(c1)CCN2)c1c[nH]c2c1C(=O)CCC2 [Compound 35, N-(2,3-Dihydro-1H-indol-5-yl)4-oxo-4,5,6,7-tetrahydro-1H-indole-3-carboxamide] | 283 to 286 °C |
| CC1(C)CC(=O)c2c(C(=O)Nc3ccc(CO)cc3)c[nH]c2C1 [Compound 31, N-[4-(Hydroxymethyl)phenyl]-4-oxo-6,6-dimethyl-4,5,6,7-tetrahydro-1H-indole-3-carboxamide] | 245 to 247 °C |
| CC1CC(=O)c2c(C(=O)Nc3ccc4c(c3)OCO4)c[nH]c2C1 (stereo not drawn) [Compound 41, N-(1,3-Benzodioxol-5-yl)-4-oxo-6-methyl-4,5,6,7-tetrahydro-1H-indole-3-carboxamide] | 297 to 299 °C |
| O=C(Nc1ccc(OCCNC2C3CC4CC(C3)CC2C4)cc1)c1c[nH]c2c1C(=O)CCC2 (stereo not drawn) [Compound 83, N-[4-(2-adamant-2-ylaminoethoxy)phenyl]-4-oxo-4,5,6,7-tetrahydro-1H-indole-3-carboxamide] | 144 to 149 °C |
| O=C(Nc1ccc(OCCn2ccnc2)cc1)c1c[nH]c2c1C(=O)CCC2 [Compound 91, N-[4-(2-Imidaz-1-ylethoxy)phenyl]-4-oxo-4,5,6,7-tetrahydro-1H-indole-3-carboxamide] | 226 to 230 °C |
| CNCc1ccc(NC(=O)c2c[nH]c3c2C(=O)CC(C)C3)cc1 (stereo not drawn) [Compound 27, N-[4-(Methylaminomethyl)phenyl]-4-oxo-6-methyl-4,5,6,7-tetrahydro-1H-indole-3-carboxamide] | 217 to 219 °C |
| CCCN(CCC)CCNC(=O)COc1ccc(NC(=O)c2c[nH]c3c2C(=O)CCC3)cc1 [Compound 228, N-[2-(dipropylamino)ethyl]-2-{4-[(4-oxo-(4,5,6,7-tetrahydroindol-3-yl))carbonylamino]phenoxy}acetamide] | 148 to 150 °C |
| CC1(C)CC(=O)c2c(C(=O)Nc3ccc(OCCO)cc3)c[nH]c2C1 [Compound 30, N-[4-(2-Hydroxyethoxy)phenyl]-4-oxo-6,6-dimethyl-4,5,6,7-tetrahydro-1H-indole-3-carboxamide] | 268 to 270 °C |
| CC(C)CNCCOc1ccc(NC(=O)c2c[nH]c3c2C(=O)CCC3)cc1F [Compound 77, N-[3-Fluoro-4-(2-Isobutylaminoethoxy)phenyl]-4-oxo-4,5,6,7-tetrahydro-1H-indole-3-carboxamide] | 147 to 149 °C |
| O=C(Nc1ccc(OCC(=O)N2CCOCC2)c(F)c1)c1c[nH]c2c1C(=O)CCC2 [Compound 232, N-[3-fluoro-4-(2-morpholin-4-yl-2-oxoethoxy)phenyl](4-oxo-(4,5,6,7-tetrahydroindol-3-yl))carboxamide] | 110 °C |
| CC1(C)CC(=O)c2c(C(=O)Nc3ccc4c(c3)OCO4)c[nH]c2C1 [Compound 43, N-(1,3-Benzodioxol-5-yl)-4-oxo-6,6-dimethyl-4,5,6,7-tetrahydro-1H-indole-3-carboxamide] | 245 to 246 °C |
| CCCNCCOc1ccc(NC(=O)c2c[nH]c3c2C(=O)CCC3)cc1F.Cl | 373 °C |
| CCCCNCCOc1ccncc1NC(=O)c1c[nH]c2c1C(=O)CCC2.Cl | 157 to 159 °C |
| O=C(Nc1cccc(OCCCNC23CC4CC(CC(C4)C2)C3)c1)c1c[nH]c2c1C(=O)CCCC2 [Compound 183, N-[3-(3-Adamant-1-ylaminopropoxy)phenyl]4-oxo-1,4,5,6,7,8-hexahydro-cyclohepta[b]pyrrole-3-carboxamide] | 175 to 176 °C |
| CN(C)CCCOc1ccncc1NC(=O)c1c[nH]c2c1C(=O)CCC2 [Compound 123, N-[4-(3-Dimethylaminopropoxy)pyrid-3-yl]-4-oxo-4,5,6,7-tetrahydro-1H-indole-3-carboxamide] | 247 °C |
| CCNCCOc1ccc(NC(=O)c2c[nH]c3c2C(=O)CCC3)cc1 [Compound 62, N-[4-(2-Ethylaminoethoxy)phenyl]-4-oxo-4,5,6,7-tetrahydro-1H-indole-3-carboxamide] | 140 to 141 °C |
| O=C(Nc1ccc(CCN2CCCC2)cc1)c1c[nH]c2c1C(=O)CCC2 [Compound 59, N-[4-(2-Pyrrolidin-1-ylethyl)phenyl]-4-oxo-4,5,6,7-tetrahydro-1H-indole-3-carboxamide] | 184 to 186 °C |
| CC1CC(=O)c2c(C(=O)Nc3ccc(CO)cc3)c[nH]c2C1 (stereo not drawn) [Compound 28, N-[4-(Hydroxymethyl)phenyl]-4-oxo-6-methyl-4,5,6,7-tetrahydro-1H-indole-3-carboxamide] | 260 to 262 °C |
| O=C(Nc1ccc(OCCC2CCCCN2)cc1)c1c[nH]c2c1C(=O)CCC2 (stereo not drawn) [Compound 94, N-[4-(2-Piperidin-2-ylethoxy)phenyl]-4-oxo-4,5,6,7-tetrahydro-1H-indole-3-carboxamide] | 281 to 285 °C |
| CCCNCCOc1ccncc1NC(=O)c1c[nH]c2c1C(=O)CCCC2.Cl | 210 °C |
